Experimental data: patent publication US6375926B1, “Labelled elastase inhibitors” (Amersham International PLC, priority 1996, dated 2002)

Columns and labels:
[1] = biological target: T1, HLE (human leucocyte elastase) (Homo sapiens, UniProt P08246); assay: Measurement of HLE inhibition potency (kinact/Ki); format: biochemical; conditions: measured for non-radioactive iodine-labelled compounds and unlabelled chelate conjugates
T1 sequence (P08246 30-267): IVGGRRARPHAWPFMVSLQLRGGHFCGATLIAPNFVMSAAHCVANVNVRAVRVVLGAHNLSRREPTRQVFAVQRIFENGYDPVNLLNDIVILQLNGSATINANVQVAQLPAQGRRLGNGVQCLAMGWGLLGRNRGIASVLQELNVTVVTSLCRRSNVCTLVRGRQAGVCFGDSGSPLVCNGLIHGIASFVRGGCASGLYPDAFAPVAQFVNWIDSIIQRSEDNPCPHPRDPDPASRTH
Method: Inhibitor potency against HLE is described by the parameter kinact/Ki as previously reported [Knight et al., Biochem., 8160-8170, (1992)]. Lyophilised enzyme was reconstituted with TrisHCl buffer, 100 mM, 0.5M NaCl at 0.05 units/ml (approximately nanomolar concentration) in a final reaction volume of 1 ml to which was added methoxysucc-ala-ala-pro-val-pNA substrate (1 mM) and the elastase inhibitor dissolved in DMSO. The reaction was monitored by detecting the change of absorbance at 410 nm (hydrolysis of the substrate releasing p-nitroaniline) over a timescale of 25 minutes. Values of kinact/Ki were estimated according to the Knight et al method.

[2] = tested on: isolated human white cells (granulocytes; monocytes + lymphocytes); assay: In vitro cell uptake in isolated human white cells; format: cell-based; conditions: for selectivity for granulocytes over a mixture of monocytes/lymphocytes: approximately equivalent numbers of monocytes/lymphocytes and granulocytes present; for % uptake in Gran. (granulocytes), WHITE CELLS / % uptake in Mon. (monocytes + lymphocytes), WHITE CELLS: isolated human white cells, 30 minutes at 37° C., radiolabelled compound
Method: Fresh blood (30-120 ml) was anticoagulated with 1.5% ACD solution and sedimented by addition of 2 ml Hespan per 10 ml blood for 90 minutes at room temperature. The leucocyte rich platelet rich plasma supernatant was removed and centrifuged at 150 g for 5 minutes, yielding a leucocyte rich pellet and platelet rich plasma (PRP). The PRP was centrifuged at 4000 g to pellet the platelets leaving a cell free plasma (CFP). The leucocyte pellet was resuspended in a 50:50 mixture of HBSS and CFP and incubated with the radioactive compound for 30 minutes at 37° C. Free radioactive material was then removed from the cells by addition of an excess of HBSS:CFP and centrifugation of the leucocytes at 150 g for 7 minutes. The supernatant and cell pellet were taken for radioactive counting for calculation of percentage cell uptake. The distribution of radioactivity within the cell pellet was assessed by separation of the cell types using Percoll density gradient centrifugation (38%, 55% and 73% Percoll in HBSS step gradients). The residual plasma and free activity was recovered from the top of the gradient, the mononuclear cells (lymphocytes and monocytes) from the interface between 38% and 55%, and the granulocytes were recovered from the interface between 55% and 73% Percoll.

[3] = tested on: mixed human red/white cells (granulocytes, monocytes + lymphocytes, erythrocytes); assay: In vitro cell uptake in mixed human red/white cells; format: cell-based; conditions: radiolabelled compound
Method: The radioactive compound was also incubated with an isolated leucocyte preparation to which an erythrocyte fraction had been added back. The packed erythrocytes obtained after blood sedimentation were washed twice with HBSS and then resuspended in their original blood volume with HBSS. Leucocytes obtained from 30 ml blood were resuspended in 0.5 ml erythrocyte suspension and 0.5 ml CFP. The cell suspension was then incubated with compound as above. Analysis of the distribution of activity in the cell pellet in the presence of red blood cells was carried out using Ficoll-Hypaque discontinuous density gradients (densities 1.04, 1.077 and 1.119 g/ml Histopaque steps).

[4] = tested on: human whole blood (granulocytes, monocytes + lymphocytes, erythrocytes); assay: In vitro cell uptake in human whole blood; format: cell-based; conditions: 37° C. for 1 hour, radiolabelled compound
Method: The radioactive compound was added to 1 ml whole blood anticoagulated with ACD and incubated at 37° C. for 1 hour. The blood was diluted with HBSS and the cellular component separated by centrifugation. Distribution of activity within the cellular pellet was assessed by separation of cell fractions on Ficoll-Hypaque gradients as above.

| SMILES | Potency (1/(M·s)), kinact/Ki [1] | selectivity for granulocytes over a mixture of monocytes/lymphocytes [2] | % uptake in Gran. (granulocytes), WHITE CELLS [2] | % uptake in Mon. (monocytes + lymphocytes), WHITE CELLS [2] | % uptake in Eryth. (erythrocytes), WHITE AND RED CELLS [3] | % uptake in Gran. (granulocytes), WHITE AND RED CELLS [3] | % uptake in Mon. (monocytes + lymphocytes), WHITE AND RED CELLS [3] | % uptake in Eryth. (erythrocytes), WHOLE BLOOD [4] | % uptake in Gran. (granulocytes), WHOLE BLOOD [4] | % uptake in Mon. (monocytes + lymphocytes), WHOLE BLOOD [4] | kinact/KI ([1]; read-out: Potency (M/sec), kinact/Ki) |
| --- | --- | --- | --- | --- | --- | --- | --- | --- | --- | --- | --- |
| CCC1(CC)C(=O)N(C(=O)NCc2ccc(C(=O)NCC(C)(CNC(C)(C)C(C)=NO)CNC(C)(C)C(C)=NO)cc2)C1Oc1ccc(C(=O)N2CCN(C)CC2)cc1 (racemic) [Compound 38, Conjugate Between Chelate, 3,3,6,9,9-Pentamethyl-6-aminomethyl-4,8-diazaundecane-2,10-dionedioxime and 4-[4-[[(4-Methyl)piperazin-1-yl]carbonyl]phenoxy]-1-[(4-carboxy)benzylaminocarbonyl]-3,3-diethyl-2-azetidinone] | 58500 M⁻¹ s⁻¹ | some degree of selectivity for granulocytes | 75.5% | 8.5% | 28.4% | 32.5% | 6.7% | – | – | – | – |
| CCC1(CC)C(=O)N(C(=O)NCCC(=O)NCC(C)(CNC(C)(C)C(C)=NO)CNC(C)(C)C(C)=NO)C1Oc1ccc(C(=O)N2CCN(C)CC2)cc1 (racemic) [Compound 42, Conjugate Between Chelate, 3,3,6,9,9-pentamethyl-6-aminomethyl-4,8-diazaundecane-2,10-dionedioxime and 4-[4-[[(4-Methyl)piperazin-1-yl]carbonyl]phenoxy]-1-[(2-carboxy)ethylaminocarbonyl]-3,3-diethyl-2-azetidinone] | 1400 M⁻¹ s⁻¹ | some degree of selectivity for granulocytes | 8.4% | 1.2% | 18.9% | 2.5% | 6.9% | – | – | – | – |
| CCC1(CC)C(=O)N(C(=O)NCCCCCC(=O)NCC(C)(CNC(C)(C)C(C)=NO)CNC(C)(C)C(C)=NO)C1Oc1ccc(C(=O)N2CCN(C)CC2)cc1 (racemic) [Compound 48, Conjugate Between Chelate, 3,3,6,9,9-pentamethyl-6-aminomethyl-4,8-diazaundecane-2,10-dionedioxime and 4-[4-[[(4-Methyl)piperazin-1-yl]carbonyl]phenoxy]-1-[(5-carboxy)pentylaminocarbonyl]-3,3-diethyl-2-azetidinone] | 5500 M⁻¹ s⁻¹ | some degree of selectivity for granulocytes | 64.5% | 7.3% | 38.7% | 16.2% | 7.2% | 9.17% | 10.6% | 22.7% | – |
| CCC1(CC)C(=O)N(C(=O)NCc2ccc(I)cc2)C1Oc1ccc(C(=O)N2CCN(C)CC2)cc1 (single isomer, unassigned) [Compound 4b] | 1350 M⁻¹ s⁻¹ | some degree of selectivity for granulocytes | 4.8% | 0.9% | 1.6% | 3.3% | 3.8% | – | – | – | – |
| CCC1(CC)C(=O)N(C(=O)NCCc2cc(I)c(O)c(I)c2)C1S(=O)(=O)CCOC (centres unmarked) [Compound 17, 4-(2-Methoxyethylsulfonyl)-1-[(3,5-diiodo)(4-hydroxy)phenylethylaminocarbonyl]-3,3-diethyl-2-azetidinone] | – | some degree of selectivity for granulocytes | 0.4% | 0.0% | – | – | – | – | – | – | 600 M⁻¹ s⁻¹ |
